pEC50, pIC50: −log10 of the molar value. Marks after values point to notes of the source that are not given here.
Columns and labels:
BaF3 (JAK2 WT) cells = assay: Cell apoptosis, ApoDirect assay; format: cell-based; details: Mus musculus, 24 hour, EPO-stimulated, ApoDirect measurement of fragmented DNA, read-out: Cell apoptosis, BaF3 (JAK2 WT) (values shown are EC50)
Protocol: Cell survival was measured by ApoDirect (BD Biosciences) assay as follows. BaF3 cells were grown at 37°C, 5% CO2, and aliquots (2 × 10^6) were treated with inhibitor (various concentration dissolved in DMSO) for 24 hours and then fixed and stained as per manufacturer protocol.

JAK3 (JH1) = molecular target: T1, JAK3 (JH1) (Homo sapiens, UniProt P52333); assay: JAK3 enzyme assay, HTRF detection; format: biochemical
T1 construct: JAK3 (JH1)
T1 sequence (P52333 822-1111 limits assumed, species assumed): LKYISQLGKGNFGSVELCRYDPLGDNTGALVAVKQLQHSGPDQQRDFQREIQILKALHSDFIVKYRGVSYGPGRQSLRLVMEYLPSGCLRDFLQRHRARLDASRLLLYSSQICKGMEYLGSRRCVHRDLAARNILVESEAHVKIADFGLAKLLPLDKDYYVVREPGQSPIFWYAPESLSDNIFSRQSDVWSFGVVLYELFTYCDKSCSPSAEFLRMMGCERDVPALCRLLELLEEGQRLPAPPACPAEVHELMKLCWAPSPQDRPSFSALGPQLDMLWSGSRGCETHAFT
Protocol: JAK1, JAK2, JAK3, and TYK2 kinase activity assays were performed as described previously using HTRF detection technology and the peptide substrate amino hexanoyl biotin-EQEDEPEGDYFEWLE-NH2. Each reaction was incubated between 60 and 80 min at room temperature. Final conditions were as follows: JAK1, 400 pM enzyme, Hepes pH 7.5, 10 mM MgCl2, 0.01% Brij-35, 1 mM EGTA, 0.1 mg/ml BSA), 2 mM DTT, 2 µM peptide substrate, 25 µM MgATP, 5% DMSO and the desired concentration of subject compound; JAK2, 25 pM enzyme (JH1, JH1–JH2^wt, JH1–JH2^V617F domains), 2 µM peptide substrate, 15 µM MgATP, 5 mM MgCl2, 100 mM NaCl, 2 mM DTT, 0.1 mg/ml BSA, 50 mM Tris (pH 7.4), 5% DMSO and the desired concentration of subject compound; JAK3, 250 pM enzyme, 50 mM Hepes pH 7.5, 10 mM MgCl2, 0.01% Brij-35, 1 mM EGTA, 0.1 mg/ml BSA), 2 mM DTT, 2.0 µM peptide substrate, 25 µM MgATP, 5% DMSO, and the desired concentration of subject compound; TYK2, 125 pM enzyme, 50 mM Hepes pH 7.5, 10 mM MgCl2, 0.01% Brij-35, 1 mM EGTA, 0.1 mg/ml BSA, 2 mM DTT, 2.0 µM peptide substrate, 15 µM MgATP, 5% DMSO and the desired concentration of subject compound.

spleen cell populations = assay: Cell populations in spleen of normal mice; format: in vivo; details: 54 mpk; for Spleen B-Cells B220+ / Spleen Cell Count / Spleen Myeloid Gr-1+ CD11b+ / Spleen NK-Cells NK1.1+ NKG2D+ / Spleen T-Cells CD4+ / Spleen T-Cells CD8+ / Spleen T-Cells Tregs CD25+CD127^lo / Spleen Weight / Spleen B-Cells MZ-B-cells CD21^hiCD23^lo: normal mice
Protocol: Cells were stained in PBS, 0.5% BSA with antibodies for 15 min on ice. Stained cells were acquired on a 4-laser LSR-II (BD Biosciences) and data analyzed using FlowJo software (Treestar). Dead cells were labeled with the blue fluorescent LIVE/DEAD reactive dye (Invitrogen) and excluded from the analysis.
Monoclonal antibodies (anti-mouse): CD3, CD4, CD5, CD8, CD11b, CD19, CD21/35, CD23, CD25, CD43, CD44, CD49b, CD69, CD71, CD93, CD117, B220, GR-1, IgD, NK1.1, NKG2A/C/E, NKG2D, Ter119 were purchased from BD Biosciences; CD4, CD8, CD49b, CD62L, TCRβ, TCRγδ from eBioscience; GR-1 from Invitrogen; CD43 from Miltenyi Biotec. Goat anti-mouse IgM-FITC, (μ chain specific) from Jackson Immuno Research.
JAK2 and its family members JAK1 and JAK3 are known to signal downstream of cytokines that play essential roles in the development of lymphoid cell populations. To examine more thoroughly the effects of JAK2 inhibition on lymphoid cells, we analyzed wild-type (C57BL/6) mice treated with 54 mpk MRLB-11055 for 3 days, 6 days or up to 5 cycles of 3 days (“on”) followed by a 4 day holiday (“off”).
Supplementary file pone.0037207.s004.doc: Table S2 Effect of MRLB-11055 on Cell Populations in Spleen of Normal Mice. Cell counts measured by Advia. Cycles refer to 3 days of treatment followed by a 4 day holiday. *p<0.05 in Student T test when comparing vehicle 5 cycle with treatment 5 cycle and vehicle 2 cycle with treatment 2 cycle, resp. (DOC) Click here for additional data file.

[1] = test system: darbepoetin-induced polycythemia and splenomegaly; assay: Darbepoetin-induced model of polycythemia; format: in vivo, C57BL/6 mice; details: 7 days
Protocol: C57BL/6 mice (Charles River Laboratories, Wilmington, MA) aged 4–6 weeks were dosed with MRLB-11055 in vehicle (10%v/v polysorbate 80) or with vehicle alone. All dosing was done by oral gavage (10 ml/kg body weight/day). Inhibition of darbepoetin-induced polycythemia and splenomegaly by MRLB-11055 was measured as described previously.

[2] = 6 days of continuous treatment, wild-type C57BL/6 mice
[3] = 2 cycles (3 days treatment, 4 day holiday)
[4] = 5 cycles (3 days treatment, 4 day holiday)

NC(=O)c1cnc(N[C@H](C2CC2)C(F)(F)F)c2c1[nH]c1cc(-c3cnc(N)nc3)ccc12 [MRLB-11055]
pEC50 (BaF3 (JAK2 WT) cells): 6.59 | pIC50 (JAK3 (JH1); HTRF, mean, n = 3, read-out: IC50, cell-free JAK3 (JH1)): 6.52 | Selectivity for JAK2 over JAK3 (JAK3 (JH1); cell-free assays): > 3000 fold | Decrease of splenic B220+ B-cells (spleen cell populations; [2]): 2 fold | Decrease of splenic NK1.1+ cells (spleen cell populations; [2]): 25 fold | Reduction of any of the splenic lymphocytes tested (spleen cell populations; intermittent dosing, 5 cycles of 3 days on and 4 days off): ≤ 2 fold | Spleen B-Cells B220+ (spleen cell populations; [3]): 30.9 ± 2.2 X10^6 | Spleen Cell Count (spleen cell populations; [3]): 53.2 ± 1.2 X10^6 | Spleen Myeloid Gr-1+ CD11b+ (spleen cell populations; [3]): 0.67 ± 0.17 X10^6 | Spleen NK-Cells NK1.1+ NKG2D+ (spleen cell populations; [3]): 1.2 ± 0.2* X10^6 | Spleen T-Cells CD4+ (spleen cell populations; [3]): 6.5 ± 1.0* X10^6 | Spleen T-Cells CD8+ (spleen cell populations; [3]): 4.0 ± 0.4* X10^6 | Spleen T-Cells Tregs CD25+CD127^lo (spleen cell populations; [3]): 0.4 ± 0.1 * X10^6 | Spleen Weight (spleen cell populations; [3]): 76.3 ± 4.7 mg | Spleen B-Cells B220+ (spleen cell populations; [4]): 31.2 ± 6.9 X10^6 | Spleen B-Cells MZ-B-cells CD21^hiCD23^lo (spleen cell populations; [4]): 1.7 ± 0.4* X10^6 | Spleen Cell Count (spleen cell populations; [4]): 59.4 ± 20.3 X10^6 | Spleen Myeloid Gr-1+ CD11b+ (spleen cell populations; [4]): 1.05 ± 0.76 X10^6 | Spleen NK-Cells NK1.1+ NKG2D+ (spleen cell populations; [4]): 0.9 ± 0.3* X10^6 | Spleen T-Cells CD4+ (spleen cell populations; [4]): 7.9 ± 1.9* X10^6 | Spleen T-Cells CD8+ (spleen cell populations; [4]): 4.9 ± 1.1* X10^6 | Spleen T-Cells Tregs CD25+CD127^lo (spleen cell populations; [4]): 0.6 ± 0.2* X10^6 | Spleen Weight (spleen cell populations; [4]): 92.5 ± 29.8 mg | Spleen B-Cells B220+ (spleen cell populations; 3 days): 24.2 ± 6.2* X10^6 | Spleen B-Cells MZ-B-cells CD21^hiCD23^lo (spleen cell populations; 3 days): 0.2 ± 0.2* X10^6 | Spleen Cell Count (spleen cell populations; 3 days): 36.2 ± 8.7* X10^6 | Spleen Myeloid Gr-1+ CD11b+ (spleen cell populations; 3 days): 0.25 ± 0.13* X10^6 | Spleen NK-Cells NK1.1+ NKG2D+ (spleen cell populations; 3 days): 0.10 ± 0.03* X10^6 | Spleen T-Cells CD4+ (spleen cell populations; 3 days): 4.9 ± 0.8* X10^6 | Spleen T-Cells CD8+ (spleen cell populations; 3 days): 4.7 ± 1.1* X10^6 | Spleen T-Cells Tregs CD25+CD127^lo (spleen cell populations; 3 days): 0.3 ± 0.1* X10^6 | Spleen Weight (spleen cell populations; 3 days): 50.5 ± 4.4* mg | Spleen B-Cells B220+ (spleen cell populations; 6 days): 16.9 ± 8.7* X10^6 | Spleen B-Cells MZ-B-cells CD21^hiCD23^lo (spleen cell populations; 6 days): 0.2 ± 0.2* X10^6 | Spleen Cell Count (spleen cell populations; 6 days): 26.5 ± 3.1* X10^6 | Spleen Myeloid Gr-1+ CD11b+ (spleen cell populations; 6 days): 0.22 ± 0.09* X10^6 | Spleen NK-Cells NK1.1+ NKG2D+ (spleen cell populations; 6 days): 0.07 ± 0.04* X10^6 | Spleen T-Cells CD4+ (spleen cell populations; 6 days): 4.1 ± 1.7* X10^6 | Spleen T-Cells CD8+ (spleen cell populations; 6 days): 3.2 ± 1.5* X10^6 | Spleen T-Cells Tregs CD25+CD127^lo (spleen cell populations; 6 days): 0.2 ± 0.1* X10^6 | Spleen Weight (spleen cell populations; 6 days): 45.8 ± 7.6* mg | Effect on WBC ([1]; 5, 15, 25 and 40 mpk once daily): dose-dependent trend towards WBC reduction, that did not reach statistical significance | Efficacy, prevention of elevated hematocrit (Hct) ([1]; 40 mpk orally once daily): 76% | Efficacy, prevention of elevated spleen weight (SPL) ([1]; 40 mpk orally once daily): 87%

— article PMC3356383, “Efficacious Intermittent Dosing of a Novel JAK2 Inhibitor in Mouse Models of Polycythemia Vera” (PLoS ONE, 2012)
